Columns and labels:
[1] = biological target: T1, Human IBAT (Homo sapiens, UniProt Q12908); test: IBAT (h) assay: 3H-taurocholic acid uptake in human IBAT-overexpressing cells; assay type: cell-based; conditions: 0.25 μM 3H-taurocholic acid and 5 μM cold taurocholic acid, 20 minutes, read-out: hIBAT IC50
T1 construct: expressed in transfected cells; cells kept under Puromycin selection
T1 sequence (Q12908 1-348): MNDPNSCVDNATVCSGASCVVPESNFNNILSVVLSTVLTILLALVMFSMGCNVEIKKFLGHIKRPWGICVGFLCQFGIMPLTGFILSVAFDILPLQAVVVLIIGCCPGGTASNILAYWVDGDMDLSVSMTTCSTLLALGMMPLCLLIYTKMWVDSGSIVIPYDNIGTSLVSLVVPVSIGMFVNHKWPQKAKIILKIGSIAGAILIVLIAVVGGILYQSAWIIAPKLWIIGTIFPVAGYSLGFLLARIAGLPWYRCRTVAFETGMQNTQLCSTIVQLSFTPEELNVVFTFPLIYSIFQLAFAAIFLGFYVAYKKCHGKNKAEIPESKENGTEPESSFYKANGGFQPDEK
Method: 10,000 cells (Human or Mouse IBAT-overexpressing cells) were seeded in 96-wells plate (Corning CLS3809) in 200 μL MEM-alpha medium (Gibco 12571-063) supplemented with 10% FBS (Gibco 10438026) containing Puromycin (Gibco A1113803) (10 μg/mL) and incubated at 37° C. in 5% CO2 for 48 hours. After incubation, media was decanted from the wells and cells were washed two times with 300 μL of basal MEM-alpha medium (FBS-free). After decanting basal MEM-alpha medium each time, plates were tapped against paper towel to ensure maximum removal of residual media. Test inhibitor dilutions (highest test concentration being 10 μM, 3-fold serial dilution, 10 points) prepared in DMSO (Sigma D2650) were added in incubation mix (maintaining 0.2% final DMSO concentration) containing 0.25 μM 3H-taurocholic acid (ARC ART-1368) and 5 μM of cold taurocholic acid (Sigma T4009). 50 μL of incubation mix containing test inhibitors was then added to the wells (in duplicate) and the plates were incubated for 20 minutes in a CO2 incubator at 37° C. After incubation, the reaction was stopped by keeping the plates on ice water mix for 2-3 minutes and then the incubation mix was aspirated completely from the wells. The wells were washed two times with 250 μL of chilled unlabelled 1 mM taurocholic acid dissolved in HEPES (Gibco 15630080)-buffered (10 mM) HBSS (Gibco 14175079) (pH 7.4). The plates were tapped against a paper towel after every wash to ensure maximum removal of blocking buffer.
(§1) 100 μL of MicroScint-20 (PerkinElmer 6013621) was added to the wells and kept overnight at room temperature before reading the plates in TopCount NXT™ Microplate Scintillation and Luminescence Counter from PerkinElmer under 3H Test protocol (set at 120 seconds reading time per well).
(§2) All test compounds were provided in powder form at room temperature. 10 mM DMSO stocks of the test compounds were prepared, aliquoted and stored at −20° C. From the 10 mM DMSO stock of the compounds, a 3-fold serial dilution in DMSO was prepared to get a total of 10 dilutions of the test compounds. 0.5 μL of this dilution in DMSO was added to 250 μL of FBS-free basal media containing 3H-taurocholic acid and cold taurocholic acid to prepare the incubation mixture.

[2] = Bidirectional permeability assay (Caco-2 cells); assay type: in vitro ADME; conditions: human, Caco-2, pH 7.4, 10 μM in FaSSIF buffer, 120 minutes at 37° C.; for Papp A→B at 120 min, 10 μM: absorptive direction (A2B); for Papp B→A at 120 min, 10 μM: secretory direction (B2A)
Method: Caco-2 cells (Evotec) were seeded at a density of 70,000 cells/well in Millicell® 24-well cell culture insert plates and maintained in an incubator (37° C., 5% CO2, 95% RH) for 21 days with media change on alternate days.
Stock solutions (10 mM) of the test compounds, atenolol (low permeability marker), propranolol (high permeability marker) and digoxin (substrate for P-gp transport pathway) were prepared in dimethylsulfoxide (DMSO). An intermediate stock solution (1 mM) was prepared by diluting 10 μL of 10 mM master stock solution with 90 μL of neat DMSO. A working stock solution (10 μM) was prepared by diluting 50 μL of 1 mM with 4950 μL of FaSSIF buffer. Post addition of compounds to the FaSSIF, samples were subjected to sonication for 2 hours, and centrifuged at 4000 RPM for 30 minutes at 37° C. The 4 mL of resultant supernatant was directly used in the assay. The final DMSO concentration in the transport experiments was 1%.
On the day of assay, Caco-2 monolayers were washed twice with transport buffer (HBSS, pH 7.4) and pre-incubated for 30 min (37° C., 5% CO2, 95% RH) in an incubator. The electrical resistance of the monolayers was measured with a Millicell®-ERS system. Monolayers with trans-epithelial electrical resistance (TEER) values greater than 350 ohm·cm^2 were selected for the assay.
The assay was conducted in absorptive direction (A2B) and secretory (B2A) directions. Transport experiments were initiated by addition of transport assay buffer (FaSSIF buffer prepared in HBSS) consisting of compounds to the donor compartment (apical chamber A-B; basolateral chamber B-A) in duplicate (n=2) wells. Drug free HBSS buffer (pH 7.4) containing 1% bovine serum albumin (BSA) was introduced to the receiver (A-B-basolateral; B-A-Apical) compartments. The volumes of apical and basolateral compartments were 0.4 and 0.8 mL, respectively. After adding dosing solution, plates were incubated in an incubator for 120 minutes at 37° C. After 120 minutes, donor and receiver samples were collected and matrix matched (1:1, 30 μL study sample+30 μL blank buffer) with the opposite buffer. Dosing samples matrix matched (1:1, 30 μL study sample+30 μL blank buffer) with the opposite buffer. Samples were processed by adding acetonitrile containing internal standard (60 μL study sample+200 μL acetonitrile containing internal standard-Tolbutamide, 500 ng/mL). Samples were vortexed and centrifuged at 4000 rpm for 10 minutes. The obtained supernatant (100 μL) was diluted with 100 μL of water and transferred to fresh 96 well plates. The concentration of compounds in the samples was analyzed by liquid chromatography tandem mass spectrometry (LC-MS/MS) method using discovery grade bio-analytical method, as applicable.
The mean apparent permeability (Papp×10^−6 cm/sec) of the test compounds, atenolol, propranolol and digoxin were calculated as follows:
where dq/dt=rate of transport (rate of transport of compound in the receiver compartment), C0=initial concentration in the donor compartment, A=surface area of the effective filter membrane.

[3] = Bioavailability studies (iv and oral dosing, plasma LC-MS/MS); assay type: in vivo, mice (C57BL/6); conditions: male, mouse, C57BL/6 mice, single oral dose of 10 mg/kg, single intravenous dose of 1 mg/kg
Method: Male mice (C57BL/6 or CD1) or Wistar rats of 8-9 weeks old were used. For each test compound, two groups of 3 animals each were used. One group was administered a single intravenous dose of 1 mg/kg (vehicle 100% DMSO) through the tail vein and the other group was administered a single oral dose of 10 mg/kg through gavage needle. The group that was administered an oral dose was fasted overnight. Blood samples were collected after 0.083, 0.25, 0.5, 1, 2, 4, 6, 8 and 24 hours following intravenous administration, and after 0.25, 0.5, 1, 2, 4, 6, 8 and 24 hours following oral administration. Blood samples were taken from saphenous vein. 0.2% EDTA was used as the anticoagulant. The samples were analyzed by a discovery grade bioanalytical method developed for the estimation of test compound in plasma, using an LC-MS/MS system.

[4] = biological target: T2, Human LBAT (Homo sapiens, UniProt Q14973); test: LBAT (h) assay: 3H-taurocholic acid uptake in human LBAT-overexpressing cells; assay type: cell-based; conditions: 0.3 μM 3H-taurocholic acid and 7.5 μM cold taurocholic acid, 20 minutes, read-out: hLBAT IC50
T2 construct: expressed in transfected cells; cells kept under Geneticin selection
T2 sequence (Q14973 1-349): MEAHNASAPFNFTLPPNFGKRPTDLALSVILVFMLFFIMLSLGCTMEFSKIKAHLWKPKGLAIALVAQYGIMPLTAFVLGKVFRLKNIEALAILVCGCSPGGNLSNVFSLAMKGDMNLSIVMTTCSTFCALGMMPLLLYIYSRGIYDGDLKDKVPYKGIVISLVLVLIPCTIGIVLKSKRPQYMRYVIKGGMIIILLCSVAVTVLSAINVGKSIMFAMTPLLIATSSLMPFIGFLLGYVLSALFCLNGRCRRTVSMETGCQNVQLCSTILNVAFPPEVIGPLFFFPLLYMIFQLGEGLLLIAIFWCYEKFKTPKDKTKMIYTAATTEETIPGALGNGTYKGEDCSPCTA
Method: 20,000 cells (Human or Mouse LBAT-overexpressing cells) were seeded in 96-wells plate (Corning CLS3809) in 100 μL MEM-alpha medium (Gibco 12571-063) supplemented with 10% FBS (Gibco 10438026) containing Geneticin (Gibco 10131-027) (1 mg/mL) and incubated at 37° C. in 5% CO2 for 24 hours. After incubation, media was decanted from the wells and cells were washed two times with 300 μL of basal MEM-alpha medium (FBS-free). After decanting basal MEM-alpha medium each time, plates were tapped against paper towel to ensure maximum removal of residual media. For human LBAT, incubation mix was prepared by adding test inhibitor dilutions (3-fold serial dilution in DMSO (Sigma D2650), 10 points) in MEM-alpha (without FBS) containing 0.3 μM 3H-taurocholic acid (ARC ART-1368) and 7.5 μM cold taurocholic acid (Sigma T4009) (maintaining 0.2% final DMSO concentration). For mouse LBAT, incubation mix was prepared by adding test inhibitor dilutions (3-fold serial dilution in DMSO, 10 points) in MEM-alpha (without FBS) containing 0.3 μM 3H-taurocholic acid and 25 μM cold taurocholic acid maintaining 0.2% final DMSO concentration).
50 μL of incubation mix containing test inhibitors was then added to the wells (in duplicate) and the plates were incubated for 20 minutes in a CO2 incubator at 37° C. After incubation, the reaction was stopped by keeping the plates on ice water mix for 2-3 minutes and then the incubation mix was aspirated completely from the wells. The wells were washed two times with 250 μL of chilled unlabelled 1 mM taurocholic acid dissolved in HEPES (Gibco 15630080)-buffered (10 mM) HBSS (Gibco 14175079) (pH 7.4). The plates were tapped against a paper towel after every wash to ensure maximum removal of blocking buffer.
as §1, with “well, with normal plate orientation).” for “well).”
as §2

IC50 [1] [nM]	Papp A→B at 120 min, 10 μM [2] [×10⁻⁶ cm/s]	Papp B→A at 120 min, 10 μM [2] [×10⁻⁶ cm/s]	bioavailability [3] [%]	IC50 [4] [nM]	Compound
268				1620	CCCCC1(CCCC)CN(c2ccccc2)c2cc(Cl)c(OCC(=O)O)cc2S(=O)(=O)C1 [Example 13, 2-((3,3-dibutyl-7-chloro-1,1-dioxido-5-phenyl-2,3,4,5-tetrahydro-1,5-benzothiazepin-8-yl)oxy)acetic Acid]
179				1070	CCCCC1(CCCC)CN(c2ccccc2)c2cc(F)c(OCC(=O)O)cc2S(=O)(=O)C1 [Example 10, 2-((3,3-dibutyl-7-fluoro-1,1-dioxido-5-phenyl-2,3,4,5-tetrahydro-1,5-benzothiazepin-8-yl)oxy)acetic Acid]
281				2530	CCCCC1(CCCC)CN(c2ccccc2)c2cc(C#N)c(OCC(=O)O)cc2S(=O)(=O)C1 [Example 11, 2-((3,3-dibutyl-7-cyano-1,1-dioxido-5-phenyl-2,3,4,5-tetrahydro-1,5-benzothiazepin-8-yl)oxy)acetic Acid]
350				473	CCCCC1(CC)CN(c2ccccc2)c2cc(F)c(OCC(=O)O)cc2S(=O)(=O)C1 (centres unmarked) [Example 12, 2-((3-butyl-3-ethyl-7-fluoro-1,1-dioxido-5-phenyl-2,3,4,5-tetrahydro-1,5-benzothiazepin-8-yl)oxy)acetic Acid]

More lines, now with the values behind:

Compound	IC50 [1] [nM]	Papp A→B at 120 min, 10 μM [2] [×10⁻⁶ cm/s]	Papp B→A at 120 min, 10 μM [2] [×10⁻⁶ cm/s]	bioavailability [3] [%]	IC50 [4] [nM]
CCCCC1(CC)CN(c2ccccc2)c2cc(N(C)C)c(OCC(=O)O)cc2S(=O)(=O)C1 (single isomer, unassigned) [Example 8, 2-((3-butyl-7-(dimethylamino)-3-ethyl-1,1-dioxido-5-phenyl-2,3,4,5-tetrahydro-1,5-benzothiazepin-8-yl)oxy)acetic Acid]	9	7.9	23.7	26	
CCCCC1(CCCC)CN(c2ccc(C#N)cc2)c2cc(SC)c(OCC(=O)O)cc2S(=O)(=O)C1 [Example 5, 2-((3,3-dibutyl-5-(4-cyanophenyl)-7-(methylthio)-1,1-dioxido-2,3,4,5-tetrahydro-1,5-benzothiazepin-8-yl)oxy)acetic Acid]	58	5.5	14.5	6	
CCCCC1(CCCC)CN(c2ccc(C(F)(F)F)cc2)c2cc(SC)c(OCC(=O)O)cc2S(=O)(=O)C1 [Example 6, 2-((3,3-dibutyl-7-(methylthio)-1,1-dioxido-5-(4-(trifluoromethyl)phenyl)-2,3,4,5-tetrahydro-1,5-benzothiazepin-8-yl)oxy)acetic Acid]	59				3610
CCCCC1(CC)CN(c2ccc(O)cc2)c2cc(SC)c(OCC(=O)O)cc2S(=O)(=O)C1 (single isomer, unassigned) [Example 20, 2-((3-butyl-3-ethyl-5-(4-hydroxyphenyl)-7-(methylthio)-1,1-dioxido-2,3,4,5-tetrahydro-1,5-benzothiazepin-8-yl)oxy)acetic Acid]	14				751
